Entries after “also recorded” stand apart in the source; their conditions may differ.
Tests used:
Assay type in all cases: physicochemical
[1] = Form III samples after drying (XRPD)
[2] = VT-XRPD of Form IV and exposure to ambient conditions
Method: 2) After heating to 75 and 120° C., pure Form VI was observed. […] Thus, Form IV is believed to be a hydrate. For XRPD analysis, PANalytical X'Pert^3 X-ray powder diffractometer was used.

[3] = Ball milling of Form I and Form IV: form stability by XRPD; settings: for Form: ball milling in 1% Poloxamer 188 water solution (50 mg/mL)
Method: (§1) Therefore, ball milling of Form I and Form IV was performed to evaluate the form stability and particle size growth. The detailed procedure of ball milling was as follows. • 1. Suspend Form I and Form IV sample in 1% Poloxamer 188 water solution (50 mg/mL), separately. • 2. Add ˜12 mL suspension into a 50-mL tube which contained milling beads (the volume of milling beads is around 30 mL). After 12 mL suspension was added, the liquid surface just covered the beads. • 3. Roll the 50-mL tube (containing beads and suspension) at 5° C., RT and 60° C. with 30 rpm. • 4. Sample ˜0.8 mL suspension at 1, 2, 4, 24 h using 1-mL syringe. • 5. Test XRPD, PSD and PLM for the suspension.
For XRPD analysis, PANalytical X'Pert^3 X-ray powder diffractometer was used.

[4] = Ball milling of Form I and Form IV: particle size (PSD)
Method: as §1

[5] = Ball milling of Form I and Form IV: aggregation (PLM); settings: after 24 h
Method: as §1
PLM images were captured using Axio Scope A1 microscope from Carl Zeiss German.

[6] = Dynamic Vapor Sorption (DVS); settings: 25° C./80% RH
Method: DVS was measured via a SMS (Surface Measurement Systems) DVS Intrinsic. The relative humidity at 25° C. were calibrated against deliquescence point of LiCl, Mg(NO3)2 and KCl.

[7] = Slurry competition of Form I, III, IV and V at high water activity at RT (XRPD of wet cake); settings: mixture of Form I
Method: The detailed procedure was as follows: • 1) Prepare saturated solution with Form I sample (803759-01-A) in three solvent systems. • 2) Add about 10 mg of each form into 1 mL corresponding saturated solution. • 3) Slurry and check the XRPD of the wet cake after one day and six days.

[8] = Storage of milled Form I aqueous suspension; settings: milled to a very small particle size
Method: as §1

CC1CC(C)CN(S(=O)(=O)c2ccc3c(c2)C(=NO)c2cc(S(=O)(=O)N4CC(C)CC(C)C4)ccc2C3=NO)C1 (stereo not shown) [Form III, (9E,10E)-2,7-bis((3,5-dimethylpiperidin-1-yl)sulfonyl)anthracene-9,10-dione dioxime]
Form conversion ([1]; after exposure to ambient condition at RT): Form V | Form conversion ([1]; after vacuum drying at RT): converted to Form IV

CC1CC(C)CN(S(=O)(=O)c2ccc3c(c2)C(=NO)c2cc(S(=O)(=O)N4CC(C)CC(C)C4)ccc2C3=NO)C1 (stereo not shown) [Form VI, (9E,10E)-2,7-bis((3,5-dimethylpiperidin-1-yl)sulfonyl)anthracene-9,10-dione dioxime]
Form conversion ([2]; after exposure to ambient condition): converted to Form IV quickly

CC1CC(C)CN(S(=O)(=O)c2ccc3c(c2)C(=NO)c2cc(S(=O)(=O)N4CC(C)CC(C)C4)ccc2C3=NO)C1 (stereo not shown) [Form IV, (9E,10E)-2,7-bis((3,5-dimethylpiperidin-1-yl)sulfonyl)anthracene-9,10-dione dioxime]
Form ([3]; 5° C., 1 h): Form IV | Form ([3]; 5° C., 2 h): Form IV | Form ([3]; 5° C., 4 h): Form IV | Form ([3]; 5° C., 24 h): Form IV | Form ([3]; 60° C., 1 h): Form IV | Form ([3]; 60° C., 2 h): form conversion was observed; also recorded: Form I + IV | Form ([3]; RT, 1 h): Form IV | Form ([3]; RT, 2 h): Form IV | Form ([3]; RT, 4 h): Form IV | Form ([3]; RT, 24 h): form conversion was observed; also recorded: Amorphous | Form conversion on ball milling ([3]; milled at elevated temperature (60° C.), time not stated): conversion to Form I; also recorded: converted to Form I | D 90 ([4]; 5° C., 1 h): 33.7 μm | D 90 ([4]; 5° C., 2 h): 17.4 μm | D 90 ([4]; 5° C., 4 h): 5.8 μm | D 90 ([4]; 5° C., 24 h): 9.8 μm | D 90 ([4]; 60° C., 1 h): 3.9 μm | D 90 ([4]; 60° C., 2 h): 4.0 μm | D 90 ([4]; 60° C., 4 h): 2.0 μm | D 90 ([4]; 60° C., 24 h): 0.6 μm | D 90 ([4]; RT, 1 h): 6.6 μm | D 90 ([4]; RT, 2 h): 4.0 μm | D 90 ([4]; RT, 4 h): 3.4 μm | D 90 ([4]; RT, 24 h): 5.8 μm | Aggregation ([5]; 5° C.): Aggregation was observed | Aggregation ([5]; RT): Aggregation was observed | water uptake [6]: 9.1% | Form by VT-XRPD ([2]; after cooling to 30° C.): Form VI was still observed | Form by VT-XRPD ([2]; after heating to 75 and 120° C.): pure Form VI | Form by VT-XRPD ([2]; at 30° C. under N2): partially converted to a new form

CC1CC(C)CN(S(=O)(=O)c2ccc3c(c2)C(=NO)c2cc(S(=O)(=O)N4CC(C)CC(C)C4)ccc2C3=NO)C1 (stereo not shown) [Form I, (9E,10E)-2,7-bis((3,5-dimethylpiperidin-1-yl)sulfonyl)anthracene-9,10-dione dioxime]
Form ([3]; 5° C., 1 h, listed as Form 1): Form I | Form ([3]; 5° C., 2 h, listed as Form 1): Form I | Form ([3]; 5° C., 4 h, listed as Form 1): Form I | Form ([3]; 5° C., 24 h, listed as Form 1): Form I | Form ([3]; 60° C., 1 h, listed as Form 1): Form I | Form ([3]; 60° C., 2 h, listed as Form 1): Form I | Form ([3]; 60° C., 4 h): Form I | Form ([3]; 60° C., 24 h): Form I | Form ([3]; RT, 1 h, listed as Form 1): Form I | Form ([3]; RT, 2 h, listed as Form 1): Form I | Form ([3]; RT, 4 h, listed as Form 1): Form I | Form ([3]; RT, 24 h, listed as Form 1): Form I | D 90 ([4]; 5° C., 1 h, listed as Form 1): 9.4 μm | D 90 ([4]; 5° C., 2 h, listed as Form 1): 9.0 μm | D 90 ([4]; 5° C., 4 h, listed as Form 1): 5.2 μm | D 90 ([4]; 5° C., 24 h, listed as Form 1): 5.6 μm | D 90 ([4]; 60° C., 1 h, listed as Form 1): 22.6 μm | D 90 ([4]; 60° C., 2 h, listed as Form 1): 6.6 μm | D 90 ([4]; 60° C., 4 h, listed as Form 1): 5.3 μm | D 90 ([4]; 60° C., 24 h, listed as Form 1): 2.0 μm | D 90 ([4]; RT, 1 h, listed as Form 1): 22.4 μm | D 90 ([4]; RT, 2 h, listed as Form 1): 21.4 μm | D 90 ([4]; RT, 4 h, listed as Form 1): 14.2 μm | D 90 ([4]; RT, 24 h, listed as Form 1): 2.8 μm | Form obtained from slurry competition ([7]; IV and V slurried in ACN/H2O (1:1, v/v) at RT): New form | Form obtained from slurry competition ([7]; IV and V slurried in ACN/H2O (1:3, v/v) at RT): Form I | Form obtained from slurry competition ([7]; IV and V slurried in H2O at RT, XRPD after one day and six days): Form IV | Form conversion during storage [8]: started converting to Form IV | Particle size growth during storage [8]: unacceptable particle size growth

From patent US20250263391A1, “CRYSTALLINE FORM OF TEGAVIVINT, METHOD OF PREPARATION, AND USE THEREOF” (Iterion Therapeutics, Inc., priority 2020, published 2025)
